Test results as given in paper PMC6410164, “Isolation and Structure-Activity Relationship of Subergorgic Acid and Synthesis of Its Derivatives as Antifouling Agent” (Marine Drugs, 2019).
Converted amounts (≈) assume the structure as drawn. Read-outs that look alike come from different tables or passages of the source.

Columns and labels:
[1] = test system: B. amphitrite; test: Larval settlement (antifouling) assay with cyprids of the barnacle B. amphitrite; format: in vivo, Balanus amphitrite; settings: Amphibalanus amphitrite, 48 h, read-out: EC50 (μg/mL), inhibition of settlement of B. amphitrite
Protocol: The antifouling activity was examined using cyprids of the barnacle B. amphitrite Darwin according to the method reported previously. Briefly, adults of B. amphitrite, collected from the intertidal zone in Hong Kong, were exposed to air for more than 6 h, and were then placed in a container filled with 0.22 µm filtered seawater (FSW) to release nauplii. The collected nauplii were raised to cyprid stage using the method described by Thiyagarajan et al.. Fresh cyprids were used in the test. Larval settlement assays were examined using 24-well polystyrene plates. The tested samples were first dissolved with small amount of dimethyl sulfoxide (DMSO) and then diluted with FSW to achieve final concentrations at 25.0, 12.5, 6.25, 3.13, 1.57, 0.78, 0.39, 0.19, 0.1, and 0.05 µg/mL. About 15−20 competent larvae were added to each well containing 1 mL of test solution in triplicate, and wells containing only FSW, DMSO, and larvae served as a control. The plates were incubated at 25 °C for 48 h. The effects of the test samples against biofouling were determined by examining the plates under a microscope to count settled, unsettled, and swimming larvae, and where appropriate, potential toxic effects were recorded. The number of settled larvae was expressed as a percentage of the total number of larvae per well. Three replicates of each treatment were performed. A concentration-response curve was then made and a trend line was constructed for each compound. EC50 was calculated as the concentration where 50% of the larval individual was inhibited to settle as compared to the control while LC50 was calculated as the concentration where 50% of the larval population was dead. […] For the purposes of this study, adults of the barnacle B. amphitrite were scraped off from the concrete posts at a pier of Pak Sha Wan, Kowloon, Hong Kong (22°21′45″N, 114°15′35″E), where only limited quantity of B. amphitrite could be collected during the period of our experiment because of the relatively hot weather and artificial disturbing of nearby construction work.

[2] = Toxicity toward larvae in the settlement assay (LC50); settings: Balanus amphitrite (barnacle), cyprid larvae, in vivo, other: immersion of larvae in test solution, B. amphitrite larvae, highest concentration tested 25 μg/mL
Protocol: The antifouling activity was examined using cyprids of the barnacle B. amphitrite Darwin according to the method reported previously. Briefly, adults of B. amphitrite, collected from the intertidal zone in Hong Kong, were exposed to air for more than 6 h, and were then placed in a container filled with 0.22 µm filtered seawater (FSW) to release nauplii. The collected nauplii were raised to cyprid stage using the method described by Thiyagarajan et al.. Fresh cyprids were used in the test. Larval settlement assays were examined using 24-well polystyrene plates. […] About 15−20 competent larvae were added to each well containing 1 mL of test solution in triplicate, and wells containing only FSW, DMSO, and larvae served as a control. The plates were incubated at 25 °C for 48 h. The effects of the test samples against biofouling were determined by examining the plates under a microscope to count settled, unsettled, and swimming larvae, and where appropriate, potential toxic effects were recorded. The number of settled larvae was expressed as a percentage of the total number of larvae per well. Three replicates of each treatment were performed. A concentration-response curve was then made and a trend line was constructed for each compound.

[3] = test system: naupliar larvae of several barnacles; parameters: method as in PMID 12031437; settings: cited from earlier work
[4] = test system: barnacle larvae; settings: cited from earlier work
[5] = test system: B. amphitrite; parameters: method as in PMID 18075899; settings: reported by Qi et al. ref 21; cited from earlier work
[6] = test system: B. amphitrite; settings: reported by Qi et al. ref 21; cited from earlier work
[7] = cyprids, 24-well plates, 25 °C, average of triplicate ± SD, highest concentration 25 μg/mL

SMILES	EC50 [1, 7] [µg/mL]	LC50 at 48 h [2] [µg/mL]	further results
COC(=O)C1=CC2(C)CCC3C(C)CC(O)C32C1C (stereo not drawn) [Compound 2]	10 ± 0.13 (≈ 37.9 µM)	> 25	–
O=C1O[C@@H](Cc2ccccc2)C(Cc2ccccc2)=C1Cc1ccccc1 [Maculalactone A]	–	–	EC50 against naupliar larvae of several barnacles [3]: 1.1 to 5.2 µg/mL
COC(=O)C1=CC2(C)CCC3C(C)CC(=O)C32C1C (stereo not drawn) [Compound 1]	3.16 ± 0.18 (≈ 12 µM)	> 25	–
Oc1c(Br)cc(Br)cc1Cc1ccc(Br)cc1Br [2,4-dibromo-6-(2,4-dibromobenzyl)phenol]	–	–	EC50 ([4]; read-out: EC50, settlement inhibition against barnacle larvae): 1260 nM
OCc1cc(O)cc(Cl)c1O [3-chloro-2,5-dihydroxybenzylalcohol]	–	–	EC50, settlement inhibition against barnacle larvae [4]: 3.19 to 3.81 µg/mL
CC1CC(O)C23C(C)C(C(=O)O)=CC2(C)CCC13 (stereo not drawn) [Compound 3]	> 25	> 25	–
CC1CC(=O)C23C1CCC2(C)C1OC1(C(=O)O)C3C (stereo not drawn) [Compound 4]	> 25	> 25	–
CC1CC(=O)C23C(C)C(C(=O)O)=CC2(C)CCC13 (stereo not drawn) [SA, subergorgic acid]	–	> 25	EC50, settlement of B. amphitrite [5]: 1.2 µg/mL; LC50 [6]: > 200 µg/mL; EC50 [1]: 1.25 ± 0.14 µg/mL (≈ 5.03 µM)
